This is an account of results in PubChem BioAssay AID330 (DTP/NCI, 2004).

The subject of the test is P388 leukemia ip, CD2F1 mice, survival T/C. Kind of test: NCI In Vivo Anticancer Drug Screen. Data for tumor model P388 Leukemia (intraperitoneal) in CD2F1 (CDF1) mice. The settings on record: endpoint: median survival time, higher = longer survival. The gist of the method: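 Mice carrying the transplanted tumor received test compound or vehicle. Survival was recorded in each group, and the value is the treated-group measurement divided by that of the vehicle-treated control group.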

Where [1] appears, read: dose: 12.5 mg/kg/injection, schedule: Q01DX009 (ip), vehicle: Klucel (hydroxypropylcellulose) (HPC).
Setting [2] is: dose: 25.0 mg/kg/injection, schedule: Q01DX009 (ip), vehicle: Klucel (hydroxypropylcellulose) (HPC).
Where [3] appears, read: dose: 50.0 mg/kg/injection, schedule: Q01DX009 (ip), vehicle: Klucel (hydroxypropylcellulose) (HPC).
Setting [4] is: dose: 200.0 mg/kg/injection, schedule: Q01DX009 (ip), vehicle: Klucel (hydroxypropylcellulose) (HPC).
Setting [5] is: dose: 60.0 mg/kg/injection, schedule: Q01DX005 (ip), vehicle: saline with Tween-80.
Setting [6] is: dose: 120.0 mg/kg/injection, schedule: Q01DX005 (ip), vehicle: saline with Tween-80.
[7] abbreviates: dose: 240.0 mg/kg/injection, schedule: Q01DX005 (ip), vehicle: saline with Tween-80.
The mark [8] stands for this setting: dose: 50.0 mg/kg/injection, schedule: Q01DX005 (ip), vehicle: saline with Tween-80.
[9] abbreviates: dose: 100.0 mg/kg/injection, schedule: Q01DX005 (ip), vehicle: saline with Tween-80.
Setting [10] is: dose: 200.0 mg/kg/injection, schedule: Q01DX005 (ip), vehicle: saline with Tween-80.
The mark [11] stands for this setting: dose: 50.0 mg/kg/injection, schedule: Q01DX005 (ip), vehicle: saline.
The mark [12] stands for this setting: dose: 100.0 mg/kg/injection, schedule: Q01DX005 (ip), vehicle: saline.
Setting [13] is: dose: 200.0 mg/kg/injection, schedule: Q01DX005 (ip), vehicle: saline.
The mark [14] stands for this setting: dose: 100.0 mg/kg/injection, schedule: Q01DX009 (ip), vehicle: Klucel (hydroxypropylcellulose) (HPC).

Values joined by “and” are separate entries in the source; they are usually repeats but may differ in a detail not shown here. Equal entries are not always repeated. Inconclusive results and toxic doses are left out.

Turning to `O=c1oc2c(cc1-c1ccccc1)CCCC2`, the T/C (dose: 50.0 mg/kg/injection, schedule: Q01DX005 (ip), vehicle: Klucel (hydroxypropylcellulose) (HPC)) is 102 % of control; the T/C (dose: 100.0 mg/kg/injection, schedule: Q01DX005 (ip), vehicle: Klucel (hydroxypropylcellulose) (HPC)) was 104 % of control; the T/C (dose: 200.0 mg/kg/injection, schedule: Q01DX005 (ip), vehicle: Klucel (hydroxypropylcellulose) (HPC)) was 103 % of control.

As to `O=C1C2C3C=CC(C3)C2C(=O)N1c1ccc2nc(SC3C=CCCC3)sc2c1` (stereo not drawn), the T/C by setting is: under setting [1], 100 % of control; under setting [2], 106 % of control; under setting [3], 99 % of control and 97 % of control; under setting [4], 88 % of control.

As for `COc1ccc(C2c3c(ccc4ccccc34)Oc3ccc4ccccc4c32)cc1`, the T/C reads like this: under setting [5], 87 % of control; under setting [6], 86 % of control; under setting [7], 90 % of control.

As for `CC1=CC2C3C(=O)NC(=O)C3C1C1C3C(=O)NC(=O)C3C21` (stereo not drawn), the T/C under setting [5] was 98 % of control, the T/C under setting [6] is 104 % of control and the T/C under setting [7] was 95 % of control.

For the compound `OC(C1CCCCC1)C1CCCCC1Cl` (stereo not drawn), the T/C was 102 % of control under setting [8], 102 % of control under setting [9] and 102 % of control under setting [10].

Take `CC(=O)C(N)CC(C)C` (stereo not drawn): the T/C runs as follows: under setting [11], 98 % of control; under setting [12], 100 % of control; under setting [13], 107 % of control.

Turning to `CCOC(=O)C1(COS(=O)(=O)c2ccc(C)cc2)C(=O)Nc2ccccc21` (stereo not drawn), the T/C reads like this: under setting [3], 100 % of control; under setting [14], 100 % of control; under setting [4], 97 % of control.

As to `COc1ccc2oc(-c3ccc(Cl)cc3)c(N3CCN(C)CC3)c2c1`, the T/C (dose: 60.0 mg/kg/injection, schedule: Q01DX005 (ip), vehicle: saline) is 102 % of control and 93 % of control and 97 % of control; the T/C (dose: 120.0 mg/kg/injection, schedule: Q01DX005 (ip), vehicle: saline) is 102 % of control and 103 % of control and 105 % of control; the T/C (dose: 240.0 mg/kg/injection, schedule: Q01DX005 (ip), vehicle: saline) is 122 % of control and 96 % of control.

For the compound `C=C(Br)C[C@]1(C(=O)OC)CC(=O)CC[C@H]1c1ccco1`, the T/C is, setting by setting: (dose: 60.0 mg/kg/injection, schedule: Q01DX005 (ip), vehicle: Klucel (hydroxypropylcellulose) (HPC)) 108 % of control; (dose: 120.0 mg/kg/injection, schedule: Q01DX005 (ip), vehicle: Klucel (hydroxypropylcellulose) (HPC)) 107 % of control; (dose: 240.0 mg/kg/injection, schedule: Q01DX005 (ip), vehicle: Klucel (hydroxypropylcellulose) (HPC)) 106 % of control.

Turning to `CCOC(=O)CC(=O)NCCc1cccc(OC)c1OC`, the T/C was 100 % of control (dose: 100.0 mg/kg/injection, schedule: Q04DX003 (ip), vehicle: other); 100 % of control (dose: 200.0 mg/kg/injection, schedule: Q04DX003 (ip), vehicle: other); 105 % of control (dose: 400.0 mg/kg/injection, schedule: Q04DX003 (ip), vehicle: other).

Turning to `CC1(C)SC2C(NC(=O)C(N)c3ccccc3)C(=O)N2C1C(=O)O` (stereo not drawn), the T/C by setting is: (dose: 100.0 mg/kg/injection, schedule: Q04DX003 (ip), vehicle: saline with Tween-80) 95 % of control; (dose: 150.0 mg/kg/injection, schedule: Q01DX009 (ip), vehicle: saline with Tween-80) 100 % of control; (dose: 200.0 mg/kg/injection, schedule: Q04DX003 (ip), vehicle: saline with Tween-80) 100 % of control; (dose: 300.0 mg/kg/injection, schedule: Q01DX009 (ip), vehicle: saline with Tween-80) 109 % of control; (dose: 400.0 mg/kg/injection, schedule: Q04DX003 (ip), vehicle: saline with Tween-80) 100 % of control; (dose: 600.0 mg/kg/injection, schedule: Q01DX009 (ip), vehicle: saline with Tween-80) 109 % of control.

With `Cc1cc(=O)c2c(=O)n(-c3ccccc3)[nH]c2[nH]1`, the T/C is 111 % of control under setting [5], 109 % of control under setting [6] and 100 % of control under setting [7].

Take `CN1CCN2c3ccccc3Cc3ccccc3C2C1` (stereo not drawn): the T/C is 90 % of control (dose: 6.25 mg/kg/injection, schedule: Q01DX009 (ip), vehicle: saline); 94 % of control (dose: 12.5 mg/kg/injection, schedule: Q01DX009 (ip), vehicle: saline); 105 % of control and 107 % of control (dose: 25.0 mg/kg/injection, schedule: Q01DX009 (ip), vehicle: saline); 118 % of control and 119 % of control (dose: 50.0 mg/kg/injection, schedule: Q01DX009 (ip), vehicle: saline).

Consider `Cc1ccc2c(NCCCCCCCCNc3c4ccccc4nc4cc(C)ccc34)c3ccccc3nc2c1`, for which, for the setting “dose: 2.5 mg/kg/injection, schedule: Q01DX009 (ip), vehicle: water”, the T/C is 150 % of control.

As to `C1=NC(c2ccccn2)=NNC(c2ccccn2)=C1c1ccccc1`, the T/C is, setting by setting: under setting [1], 97 % of control; under setting [2], 98 % of control; under setting [3], 93 % of control; under setting [14], 96 % of control; under setting [4], 93 % of control.

Take `O=C1NC(=O)C2(c3ccccc3)CCN1C2=O` (stereo not drawn): the T/C under setting [3] was 103 % of control, the T/C under setting [14] is 110 % of control and the T/C under setting [4] is 104 % of control.

On to `N#Cc1c(=O)n(O)c2ccccc2[n+]1[O-]`, for which the T/C by setting is: (dose: 25.0 mg/kg/injection, schedule: Q01DX005 (ip), vehicle: saline with Tween-80) 94 % of control; under setting [8], 97 % of control; under setting [9], 106 % of control; under setting [10], 102 % of control; (dose: 400.0 mg/kg/injection, schedule: Q01DX005 (ip), vehicle: saline with Tween-80) 93 % of control.

In the case of `C1=C[N-]c2c3c(ccc2=C1)=CC=C[N-]3.N#[O+].O.O=N[O-].O=N[O-].[Ru+2]`, the T/C was 107 % of control (dose: 3.13 mg/kg/injection, schedule: Q04DX003 (ip), vehicle: water) and 121 % of control (dose: 12.5 mg/kg/injection, schedule: Q04DX003 (ip), vehicle: water).

As for `CCOC(=O)/C=C1/Nc2ccc([N+](=O)[O-])cc2NC1=O` (tested in a mixture with another compound), the T/C (dose: 50.0 mg/kg/injection, schedule: Q01DX009 (ip), vehicle: distilled water + Tween-80 + alcohol) was 86 % of control; the T/C (dose: 100.0 mg/kg/injection, schedule: Q01DX009 (ip), vehicle: distilled water + Tween-80 + alcohol) is 94 % of control; the T/C (dose: 200.0 mg/kg/injection, schedule: Q01DX009 (ip), vehicle: distilled water + Tween-80 + alcohol) is 103 % of control.

For `COc1cc(C(CC(=O)O)CC(=O)O)cc(OC)c1OC`, the T/C was 93 % of control under setting [8], 95 % of control under setting [9] and 95 % of control under setting [10].

Take `CN(C)C(P1(=O)OC(C)(C)C(C)(C)O1)P1(=O)OC(C)(C)C(C)(C)O1`: the T/C is, setting by setting: under setting [11], 104 % of control; under setting [12], 99 % of control; under setting [13], 98 % of control.

`COC(C#N)c1ccccc1` (stereo not drawn): the T/C by setting is: (dose: 6.25 mg/kg/injection, schedule: Q04DX003 (ip), vehicle: saline with Tween-80) 100 % of control; (dose: 12.5 mg/kg/injection, schedule: Q04DX003 (ip), vehicle: saline with Tween-80) 100 % of control; (dose: 25.0 mg/kg/injection, schedule: Q04DX003 (ip), vehicle: saline with Tween-80) 108 % of control and 115 % of control and 91 % of control; (dose: 25.0 mg/kg/injection, schedule: Q04DX003 (ip), vehicle: saline) 98 % of control.

For `Cn1cnc2cc(NCCO)c([N+](=O)[O-])cc2c1=O`, the T/C is 105 % of control (dose: 100.0 mg/kg/injection, schedule: Q04DX003 (ip), vehicle: saline); 119 % of control (dose: 200.0 mg/kg/injection, schedule: Q04DX003 (ip), vehicle: saline); 96 % of control (dose: 400.0 mg/kg/injection, schedule: Q04DX003 (ip), vehicle: saline).

With `CSc1nc(Cl)c2cn[nH]c2n1`, the T/C (dose: 100.0 mg/kg/injection, schedule: Q04DX002 (ip), vehicle: water) was 116 % of control and the T/C (dose: 200.0 mg/kg/injection, schedule: Q04DX002 (ip), vehicle: water) was 109 % of control.
